From patent US20060127980A1, “Human excitatory amino acid transporter-2 gene promoter and uses thereof” (priority 2003, published 2006)

Experiments:
glutamate uptake by PHFA = conditions: Fine et al., 1996; cited from earlier work
hEAAT2 promoter = test: flhEAAT2Prom-luc and deletion mutant luciferase reporter assay in PHFA treated with modulators; type: cell-based, human
Description: (§1) FIG. 4A-D. Effect of modulators of hEAAT2 activity on hEAAT2 expression and hEAAT2 promoter activity in PHFA. A. A Northern analysis of hEAAT2 and GAPDH mRNA expression following treatment with EGF (30 ng/ml), TGF-α (30 ng/ml), dbcAMP (200 μM, bromo-cAMP (100 μM) or TNF-α (200 U/ml) for 7 days. B. Nuclear run-on assays determining the relative rates of hEAAT2 and GAPDH transcription as a function of 7-day treatment with the same concentrations of the indicated agents. C. A time course of mRNA expression of hEAAT2 and GAPDH following treatment with EGF, bromo-cAMP or TNF-α (same concentrations as in A.). D. Fold luciferase activity in PHFA transfected with flhEAAT2Prom-luc or various deletion mutants of hEAAT2 and non-transfected controls treated with the indicated compounds for four days.
Construction of hEAAT2 Promoter Deletion Mutants and Performance of the Luciferase Assays. 5′-deletion mutants of the hEAAT2 promoter were made with exonuclease III digestion using the Erase-A-Base System (Promega) as described for the PEG-3 promoter (Su et al., 2000, Oncogene 19(30):3411-3421). The flhEAAT2Prom-luc and flhEAAT2Prom-luc deletion mutants were cloned into the pGL3-basic luciferase reporter vector (Promega) and luciferase reporter assays were performed as described (Su et al., 2000, Oncogene 19(30):3411-3421; Su et al., 2001, Nucleic Acids Res 29(8):1661-1671), except that instead of using lipofectamine, which was toxic to PHFA, the calcium phosphate precipitation transfection technique was used (Babiss et al., 1986, Proc Natl Acad Sci USA 83(7):2167-2171).
Preferential Expression of the hEAAT2 Promoter in PHFA and Deletion Analysis of the hEAAT2 Promoter. hEAAT2 is expressed in brain-derived cells, mainly astrocytes (Tanaka et al., 1997, Science 276(5319):1699-1702; Anderson et al., 2000, Glia 32(1):1-14). Experiments were performed to confirm hEAAT2 promoter activity in normal human astrocytes and to determine expression levels in other cell types (FIG. 2A). Primary early passage and established human normal and tumor cell lines were co-transfected with a putative full-length ˜2.5 kb hEAAT2 promoter, a SacII fragment extending from bp −2426 to bp +44, was cloned into the pGL3-basic vector (Promega), where it drove expression of the firefly luciferase (luc) gene, and a pSV-β-galactosidase expression plasmid. Relative fold expression of a full length hEAAT2 promoter-luciferase (flhEAAT2Prom-luc) construct was determined as described (Su et al., 2000, Oncogene 19(30):3411-3421; Su et al., 2001, Nucleic Acids Res 29(8):1661-1671), and activity versus transfection with a pSV-β-galactosidase plasmid was calculated as described (Su et al., 2000, Oncogene 19(30):3411-3421; Su et al., 2001, Nucleic Acids Res 29(8):1661-1671) to equalize for differences in transfection efficiency.
To examine further the relationship between hEAAT2 and treatment with the various glutamate transporter modulators, transient transfection assays were performed in PHFA using the flhEAAT2Prom-luc constructs and various deletions thereof (FIG. 4D). […] In the case of dbcAMP, promoter activity was enhanced by ˜3-fold.

hEAAT2 transcription = test: Nuclear run-on assay of hEAAT2 transcription in PHFA; type: cell-based, human; conditions: 7-day treatment
Description: as §1
Primer Extension Analysis and Nuclear Run-on Assays. Primer extension assays were performed as described (Su et al., 2000, Oncogene 19(30):3411-3421). A primer with the sequence 5′-[…]-3′ (SEQ ID NO:6) complementary to the 5′ UTR of the hEAAT2 cDNA was used for this assay. Nuclear run-on assays were performed as described (Su et al., 1997, Proc Natl Acad Sci USA 94(17):9125-9130).
To examine whether stimulation of hEAAT2 expression involves transcriptional changes, nuclear run-on assays were performed.

hEAAT2 protein = test: Western blot of EAAT2 protein in PHFA; type: cell-based, human
Description: FIG. 5A-E. Effect of pharmacological inhibitors on hEAAT2 promoter activity, and mRNA and protein expression in PHFA following various treatment protocols. A. hEAAT2 promoter activity in PHFA, either untreated (−) or treated with EGF (30 ng/ml), in the absence (−) or presence (+) of KT5720 (5 μM), AG1478 (1 μM), PDTC (100 μM), wortmannin (WRT) (100 nM) or PD98049 (PD) (50 μM). B. hEAAT2 promoter activity in PHFA, either untreated (−) or treated with bromo-cAMP (250 μM) in the absence (−) or presence (+) of KT5720 (5 μM), AG1478 (1 μM), PDTC (100 μM), wortmannin (WRT) (100 nM) or PD98049 (PD) (50 μM). C. hEAAT2 promoter activity in PHFA, either untreated (−) or treated with TNF-α (200 U/ml), in the absence (−) or presence (+) of KT5720 (5 μM), AG1478 (1 μM), PDTC (100 μM), wortmannin (WRT) (100 nM) or PD98049 (PD) (50 μM). D. The effect of the various treatment protocols on hEAAT2 and GAPDH mRNA levels. Upper panel presents relative hEAAT2 RNA expression versus GAPDH expression relative to control untreated or treated samples based on scanning of autoradiograms. Lower panel, actual Northern blots. E. The effect of the various treatment protocols on EAAT2 and ACTIN protein levels. Upper panel presents relative EAAT2 protein expression versus ACTIN expression relative to control untreated or treated samples based on scanning of autoradiograms. Individual experiments were performed 3 times using triplicate samples and S.D. from the mean is presented.
(§2) Northern and Western Blotting Assays. Total cellular RNA was isolated by the guanidinium/phenol extraction method and Northern blotting was performed as described (Huang et al., 2001, Oncogene 20(48):7051-7063; Su et al., 2000, Oncogene 19(30):3411-3421; Su et al., 2001, Nucleic Acids Res 29(8):1661-1671). Western blotting assays were performed as described (Su et al., 1998, Proc Natl Acad Sci USA 95(24):14400-14405; Su et al., 2002, Oncogene 21(22):3592-602).

hEAAT2 expression = hEAAT2 expression in PHFA, readout not specified; type: cell-based, human
hEAAT2 mRNA = test: Northern blot of hEAAT2 mRNA in PHFA treated with modulators; type: cell-based, human
Description: as §1, §2
Positive and Negative Regulation of hEAAT2 Transcription, Promoter Activity and mRNA Levels in PHFA. Several enhancers of GLT-1 expression in rat astrocytes have been identified, including epidermal growth factor (EGF), transforming growth factor-α (TGF-α) and dibutyryl cyclic AMP (dbcAMP) (Swanson et al., 1997, J Neurosci 17(3):932-940; Zelenaia et al., 2000, Mol Pharmacol 57(4):667-678). Based on these considerations, experiments were performed to determine if these agents similarly modify human hEAAT2 expression in PHFA. Consistent with previous observations in rat astrocytes, 7-day treatment with EGF, TGF-α, and two analogs of cAMP, dbcAMP and bromo-cAMP, stimulated hEAAT2 mRNA expression in PHFA, whereas TNF-α decreased expression (FIG. 4B). […] In contrast, TNF-α decreased expression by 48 h (FIG. 4C).

## TNF-α
Glutamate uptake by PHFA
  glutamate uptake by PHFA: inhibits
hEAAT2 promoter
  hEAAT2 promoter activity (in words): inhibited
hEAAT2 transcription
  relative rate of transcription of hEAAT2 RNA compared with GAPDH: decreased
hEAAT2 protein
  hEAAT2 protein levels: decreased
hEAAT2 expression
  hEAAT2 expression: decreased
hEAAT2 mRNA; 7-day treatment, EGF 30 ng/ml, TGF-α 30 ng/ml, dbcAMP 200 μM, bromo-cAMP 100 μM, TNF-α 200 U/ml
  hEAAT2 mRNA expression: decreased
hEAAT2 mRNA; time course, bromo-cAMP enhanced, TNF-α decreased
  time by which hEAAT2 mRNA expression was changed: ≤ 48 h
